Data taken from US20030040114A1, “SMALL MOLECULE MODULATION OF RIBOZYMES” (Warner-Lambert Company,, priority 1996, published 2003).
Starred links: 1 amine or outer side, 2 acyl side, 3 side chain; linkers in the order of their positions; H or OH if unused. Positions of bridges follow the written chain, without caps; N, C: chain ends. Non-standard residues stand in square brackets, D forms with d. Residues, ends and D or L forms follow the SMILES beside them. *: point of attachment. X1 = NC1=N[C@@H]([C@H](N[*:1])C(=O)[*:2])C[C@H](O)N1; ΔAla(Z-3-ureido) = NC(=O)N/C=C(\N)C(=O)O; β3hOrn = NCCC[C@H](N)CC(=O)*; Dap = NC[C@H](N)C(=O)O

Columns and labels:
[1] = system: self-splicing Pneumocystis carinii Group I intron RNA; test: Filtration assay for self-splicing Group I intron (96-well, 32P-GTP incorporation, TCA precipitation); type: biochemical; conditions: single concentration 20 μM; four repeats; FIG. 6
Description: A high-throughput screening assay for self-splicing Group I introns using 96-well format filter plates is disclosed. Nonradioactive, intron-containing precursor RNA is incubated with α-^32P-labeled GTP in the absence or presence of small molecules. During the first step of Group I intron splicing, ^32P-GTP is covalently ligated to the 5′ terminus of the intron. Subsequently, the intron-containing products of both the first (439-nt RNA) and the second (390-nt RNA) steps are radioactively labeled at the 5′-end with ^32P isotopes. Free ^32P-GTP and the longer ^32P-labeled (acid-precipitable) RNA products can be readily separated through trichloroacetic acid precipitation and subsequent filtration through nitrocellulose membrane. The efficiency of inhibition can be followed by measuring the amount of the radioactivity retained on the filter membrane. In the control experiment, the spliced products containing 5′-^32P GMP will retain on the membrane. If the first step (5′-cleavage) is inhibited by a small molecule, incorporation of ^32P-GTP to the precursor RNA will be inhibited and, therefore, a decreased amount of radioactivity will be found on the membrane.
In each well of a 96-well U-bottom microtiter plate, 32 μL of precursor RNA (in self-splicing buffer 50 mM Tris-HCl, pH 7.5, 10 mM (NH4)2SO4, 10 mM MgCl2, 5 mM spermidine, and 5% glycerol) was added with 2 μL of a small organic compound in dimethylsulfoxide (DMSO) and the mixture incubated at room temperature for 5 minutes. […] The filter was allowed to dry and the retained radioactivities were determined using scintillation counting (Wallac Microbeta Counter). […]
Column 1 represents the results of eight repeats of the self-splicing reactions in the absence of any inhibitors while Column 12 represents the data of eight repeats of solution containing ^32P-GTP only. […] The results of a total of 18 plates (a total of 1,440 samples) have been analyzed and the statistical distribution of the inhibitory activities is shown in FIG. 4. […]

[2] = system: self-splicing Pneumocystis carinii Group I intron RNA; test: Multiple-loading gel electrophoresis assay for self-splicing Group I intron; type: biochemical; conditions: single concentration 20 μM; four repeats; FIG. 6
Description: As another example of a separation method useful in the present invention, a high-throughput gel electrophoresis assay with multiple loading capability is used in studies of self-splicing Group I introns. To be specific, the reaction sample, prepared similarly as described in the filtration assay, was loaded on a denaturing polyacrylamide gel (7 M urea, 6% polyacrylamide) and electrophoresed for 1 hour at room temperature. Due to their lengths, the ^32P-labeled products of the self-splicing introns can be readily distinguished from the ^32P-GTP on a polyacrylamide gel. On a single polyacrylamide gel, usually three or four repetitive loadings of different samples into the same wells at discrete times present no interference between samples. […] After a total of 3 hours of electrophoresis, the desired products are well-resolved in all samples regardless of the time of loading.
Each sample contains the same self-splicing reaction solution as described in the previous section (32 μL of precursor RNA in self-splicing buffer, 2 μL of DMSO or compound, and 6 μL solution of α-^32P-GTP). As described previously, the products of the self-splicing reactions are 5′-end labeled intron-containing 439-nt RNA (from the first step) and 390-nt RNA (from the second step). These large RNA fragments can be readily separated from the starting material, ^32P-GTP. After splicing reactions, a total of 20 samples were loaded on a polyacrylamide gel three times (first loading at time 0, then two more loadings at 1, and 2 hours after the first loading, respectively). […] In this gel electrophoresis assay, for the purpose of quantitation of reaction yields, appropriate ^32P-labeled RNA fragments can be introduced to each sample as an internal standard immediately prior to loading. The gels containing self-splicing products and internal standards separated according to their different mobilities can be dried and quantitated by a phosphor imager (Phosphoimager, Molecular Dynamics). […]

| SMILES | Self-splicing inhibitory effect, filtration assay [1] | Self-splicing inhibitory effect, gel electrophoresis assay [2] |
| --- | --- | --- |
| N=C(N)c1ccc(OCCCCCOc2ccc(C(=N)N)cc2)cc1 [pentamidine] | either low or modest activity | either low or modest activity |
| [H]/N=C(/N)N[C@H]1[C@H](O)[C@@H](O)[C@H](O[C@@H]2O[C@@H](C)[C@](O)(C=O)[C@H]2O[C@@H]2O[C@@H](CO)[C@H](O)[C@@H](O)[C@@H]2NC)[C@@H](N/C(N)=N\[H])[C@@H]1O [streptomycin] | either low or modest activity | either low or modest activity |
| NCCC[C@H](N)CC(=O)N[C@H]1CNC(=O)[C@H]([C@H]2C[C@H](O)NC(N)=N2)NC(=O)/C(=C/NC(N)=O)NC(=O)[C@H](CO)NC(=O)[C@H](CO)NC1=O [viomycin, Viomycin] (β3hOrn-[Dap]SS[ΔAla(Z-3-ureido)][X1]; lactam 1-C) | either low or modest activity | either low or modest activity |
